Laboratory results taken from ChEMBL document CHEMBL1806420, “Design, synthesis and antimycobacterial evaluation of novel 3-substituted-N-aryl-6,7-dimethoxy-3a,4-dihydro-3H-indeno[1,2-c]pyrazole-2-carboxamide analogues” (Bioorg Med Chem Lett, 2011).
In brackets after ≈: the same amount, converted by molar mass.

tested on: Mycobacterium tuberculosis; test: Antimycobacterial activity against isoniazid-resistant Mycobacterium tuberculosis by agar dilution method; assay type: functional

Compound | MIC [µM]
COc1cc2c(cc1OC)C1=NN(C(=O)Nc3ccc(F)c(Cl)c3)C(c3ccccc3)C1C2 (centres undefined) | 12.5 (≈ 5.82 µg/mL)
COc1ccc(C2C3Cc4cc(OC)c(OC)cc4C3=NN2C(=O)Nc2ccc(F)c(Cl)c2)cc1 (centres undefined) | 12.5 (≈ 6.2 µg/mL)
COc1cc2c(cc1OC)C1=NN(C(=O)Nc3ccc(F)cc3)C(c3ccncc3)C1C2 (centres undefined) | 6.25 (≈ 2.7 µg/mL)
COc1cc2c(cc1OC)C1=NN(C(=O)Nc3ccc(F)cc3)C(c3ccccc3Cl)C1C2 (centres undefined) | 12.5 (≈ 5.82 µg/mL)
COc1cc2c(cc1OC)C1=NN(C(=O)Nc3ccc(F)cc3)C(c3ccc(F)cc3)C1C2 (centres undefined) | 0.78 (≈ 0.351 µg/mL)
COc1cc2c(cc1OC)C1=NN(C(=O)Nc3ccc(F)cc3)C(c3ccccc3)C1C2 (centres undefined) | 10 (≈ 4.31 µg/mL)
COc1ccc(C2C3Cc4cc(OC)c(OC)cc4C3=NN2C(=O)Nc2ccc(F)cc2)cc1 (centres undefined) | 12.5 (≈ 5.77 µg/mL)
COc1cc2c(cc1OC)C1=NN(C(=O)Nc3ccc(Br)cc3)C(c3ccncc3)C1C2 (centres undefined) | 10 (≈ 4.93 µg/mL)
COc1cc2c(cc1OC)C1=NN(C(=O)Nc3ccc(Br)cc3)C(c3ccccc3Cl)C1C2 (centres undefined) | 10 (≈ 5.27 µg/mL)
COc1cc2c(cc1OC)C1=NN(C(=O)Nc3ccc(Br)cc3)C(c3ccc(F)cc3)C1C2 (centres undefined) | 6.25 (≈ 3.19 µg/mL)
COc1cc2c(cc1OC)C1=NN(C(=O)Nc3ccc(Br)cc3)C(c3ccccc3)C1C2 (centres undefined) | > 10
COc1cc2c(cc1OC)C1=NN(C(=O)Nc3ccc(F)c(Cl)c3)C(c3ccncc3)C1C2 (centres undefined) | 10 (≈ 4.67 µg/mL)
COc1cc2c(cc1OC)C1=NN(C(=O)Nc3ccc(F)c(Cl)c3)C(c3ccccc3Cl)C1C2 (centres undefined) | 12.5 (≈ 6.25 µg/mL)
COc1cc2c(cc1OC)C1=NN(C(=O)Nc3ccc(F)c(Cl)c3)C(c3ccc(F)cc3)C1C2 (centres undefined) | 3.12 (≈ 1.51 µg/mL)
COc1ccc(C2C3Cc4cc(OC)c(OC)cc4C3=NN2C(=O)Nc2ccc(F)c(Cl)c2)cc1OC (centres undefined) | 12.5 (≈ 6.57 µg/mL)
NNC(=O)c1ccncc1 [ISONIAZID] | 12.5 (≈ 1.71 µg/mL)
CO[C@H]1/C=C/O[C@@]2(C)Oc3c(C)c(O)c4c(O)c(c(/C=N/N5CCN(C)CC5)c(O)c4c3C2=O)NC(=O)/C(C)=C\C=C\[C@H](C)[C@H](O)[C@@H](C)[C@@H](O)[C@@H](C)[C@H](OC(C)=O)[C@@H]1C [RIFAMPIN] | 3.12 (≈ 2.57 µg/mL)

tested on: Mycobacterium tuberculosis; test: Ratio of isoniazid MIC to compound MIC for isoniazid-resistant Mycobacterium tuberculosis; assay type: functional

Compound | Ratio
COc1cc2c(cc1OC)C1=NN(C(=O)Nc3ccc(F)cc3)C(c3ccc(F)cc3)C1C2 (centres undefined) | 16
COc1cc2c(cc1OC)C1=NN(C(=O)Nc3ccc(F)c(Cl)c3)C(c3ccc(F)cc3)C1C2 (centres undefined) | 4
